According to paper PMC7822874, “Chemoprotective antimalarials identified through quantitative high-throughput screening of Plasmodium blood and liver stage parasites” (Scientific Reports, 2021):
Where two headings read alike, the source gives them in different places.

Key:
[1] = test system: P. berghei-ANKA-GFP-LucCON liver stage parasites in HepG2-A16-CD81EGFP cells; test: P. berghei liver stage Pb-Luc assay, Method 1 (UCSD, 1536-well); assay type: cell-based, Plasmodium berghei; conditions: Plasmodium berghei, Method 1; log10 of molar AC50 from Hill fit; read-out: Log AC50 (converted)
in vitro = conditions: human, hepg2 cells
[2] = target: T1, Firefly luciferase (Fluc, EC 1.13.12.7) (Photinus pyralis, UniProt P08659); test: biochemical; set-up: Firefly luciferase enzyme inhibition counterscreen, luminescence with ATP and D-luciferin; conditions: read-out: Log AC50 (the source's name) (converted)
T1 sequence (P08659 whole entry): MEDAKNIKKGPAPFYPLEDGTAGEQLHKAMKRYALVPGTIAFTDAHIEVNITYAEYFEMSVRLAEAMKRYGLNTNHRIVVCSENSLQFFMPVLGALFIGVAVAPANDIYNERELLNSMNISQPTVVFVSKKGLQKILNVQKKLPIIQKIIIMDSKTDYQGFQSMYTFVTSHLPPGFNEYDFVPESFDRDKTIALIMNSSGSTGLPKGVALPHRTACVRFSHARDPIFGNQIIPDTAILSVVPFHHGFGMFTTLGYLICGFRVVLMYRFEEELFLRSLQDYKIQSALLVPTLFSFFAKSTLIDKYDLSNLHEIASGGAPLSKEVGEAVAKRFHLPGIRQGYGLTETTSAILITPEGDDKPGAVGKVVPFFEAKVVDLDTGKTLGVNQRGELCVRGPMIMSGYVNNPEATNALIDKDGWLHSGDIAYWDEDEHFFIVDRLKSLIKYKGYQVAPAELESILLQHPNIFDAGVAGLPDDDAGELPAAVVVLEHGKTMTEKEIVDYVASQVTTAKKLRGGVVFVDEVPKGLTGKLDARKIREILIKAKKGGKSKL
Protocol: (§1) Compound activity against the Photinus pyralis luciferase (Firefly luciferase, Fluc) reporter utilized for the liver stage assay was determined as previously described using 10 nM Fluc (EC 1.13.12.7) and 10 μM of each substrate (ATP and D-luciferin)[68]. […] Luminescence was detected using ViewLux µHTS Microplate Imager. A counter screen of these 4253 compounds was also performed against the Fluc enzyme, as both liver stage methods utilized a transgenic P. berghei Fluc parasite.

[3] = target: T1, Firefly luciferase (Fluc, EC 1.13.12.7); test: biochemical; set-up: Firefly luciferase enzyme inhibition counter-screen, luminescence read-out
Protocol: as §1

[4] = test system: luciferase-expressing P. berghei liver stage parasites in HepG2 cells; test: Inhibition of liver-stage development assay (ILSDA), Method 2 (WRAIR, 96-well); assay type: cell-based, Plasmodium berghei; conditions: for AC50: Plasmodium berghei, HepG2, Method 2
HepG2 = conditions: human, hepg2 cells, 48 h

CCN(CC)CCCN(c1ccccc1)C1Cc2ccccc2C1.Cl [NCGC00167576-01]
AC50 [1]: 1.58 µM | CC50 at 48 h (in vitro): 27.3 µM | IC50 [2]: > 57 µM | AC50 [3]: > 57 µM | Max Resp (signal direction of the dose response) ([4]; Method 2, Decrease = decreasing P. berghei viability with dose, Increase = increasing signal, Inactive = no dose response): Decrease | AC50 ([4]; Hill fit, 50% of maximum activity response, read-out: AC50): 7.94 µM | AC50 ([4]; log10 of molar AC50 from Hill fit, read-out: Log AC50 (converted)): 7.94 µM | Log AC50 (M) (HepG2): -4.5643 M
